From EP0108606B1, “Steroid compounds” (STERWIN AG., priority 1982, dated 1984)
Where two headings read alike, the source gives them in different places.

Legend:
[1] = Bioavailability Test: plasma levels after oral 60 mg capsules of different trilostane particle size; assay type: in vivo, volunteers; conditions: for AUC at 24 h: human, plasma, po, 120 mg, 120 mg trilostane (2 x 60 mg capsules) oral, empty stomach, eight volunteers, read-out: Trilostane AUCo^24
Method: 60 mg capsules were prepared as described in Example 1 by wet granulation techniques using batches of trilostane comprising (i) particles having a mean equivalent sphere volume diameter of about 10 µm (at least about 95% of the particles having a particle size of less than about 50 pm), (ii) particles of mean equivalent sphere volume diameter of about 45 µm, and (iii) particles of mean equivalent sphere volume diameter greater than 100 pm.
In a three part double blind cross-over study on eight volunteers, each volunteer received a dosage of 120 mg of trilostane (2 x 60 mg capsules) on an empty stomach with 50 ml of tap water. Blood samples (8 ml) were taken pre-medication and at 0.5, 1.0, 2.0, 3.0, 4.0, 5.0, 6.0, 8.0, 10.0 and 24.0 hours and assayed for plasma levels of trilostane and trilostane metabolite. Plasma concentrations were processed by a computer programme giving maximum concentration in plasma (Cmax) and time taken to reach this maximum (Tmax) by inspection. Values for the area under the curve of concentration against time over the time span 0 to t ( [formula] ―where t is time) were then calculated using the trapezoid rule and statistical analysis was carried out using the Students paired t-test.
The following Table I sets out [formula] values (mg.ml^-1.h) for trilostane and 17-keto metabolite.

[2] = In vitro dissolution or release testing of products with different trilostane particle sizes; assay type: physicochemical; conditions: products containing batches of trilostane of differing particle sizes

C[C@]12CC[C@H]3[C@@H](CC[C@@]45O[C@@H]4C(O)=C(C#N)C[C@]35C)[C@@H]1CC[C@@H]2O [Trilostane, 2a-cyano-4a,5a-epoxyandrostan-17a-ol-3-one]
ratio of Metabolite AUC to Trilostane AUCo^4 ([1]; 10 µm material): 3.1
ratio of Metabolite AUC to Trilostane AUCo^4 ([1]; 45 µm material): 4.5
ratio of Metabolite AUC to Trilostane AUCo^4 ([1]; 100 µm material): 6.5
plasma levels at 24 hours ([1]; 24 hours after 120 mg oral, in most cases): could not be detected
AUC at 24 h ([1]; particle size 10 µm): 1600 µg·h/mL
AUC at 24 h ([1]; particle size 45 µm): 600 µg·h/mL
AUC at 24 h ([1]; particle size 100 µm): 200 µg·h/mL
dissolution or release properties [2]: could not be differentiated
